Source: PubChem BioAssay (NCI)
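Interpolation was linear, between the two tested concentrations surrounding the appropriate level; five concentrations were tested over 48 hours in 96-well plates. At the GI50, growth is halved. TGI marks complete inhibition of growth.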

Key:
Test in all cases: NCI-60 cell line screen, 48 h
[1] = test system: A498 renal
[2] = test system: DU-145 prostate
[3] = test system: HCT-15 colon
[4] = test system: HL-60(TB) leukemia
[5] = test system: NCI/ADR-RES ovarian
[6] = test system: RPMI-8226 leukemia
[7] = test system: SF-295 CNS
[8] = test system: SF-539 CNS
[9] = test system: T-47D breast
[10] = test system: SNB-75 CNS

Structure (SMILES)	GI50 [1] [µM]	TGI [1] [µM]	GI50 [2] [µM]	TGI [2] [µM]	GI50 [3] [µM]	TGI [3] [µM]	GI50 [4] [µM]	TGI [4] [µM]	GI50 [5] [µM]	TGI [5] [µM]	GI50 [6] [µM]	TGI [6] [µM]	GI50 [7] [µM]	TGI [7] [µM]	GI50 [8] [µM]	TGI [8] [µM]	GI50 [9] [µM]	TGI [9] [µM]	GI50 [10] [µM]	TGI [10] [µM]
COc1cc(-c2nn(-c3cccc(NC(=O)c4cccc(C(F)(F)F)c4)c3)cc2-c2ccncc2)ccc1Cl	0.687	2.78	1.76	32.1	1.55	> 50	2.02	> 50	1.09	3.17	1.57	26.6	1.02	3	0.895	2.3	2.55	> 50		
Nc1nc(N)c(-c2ccccc2)c(C(=O)Nc2nccs2)n1						> 100		> 100						> 100		> 100				
O=C1COc2c(CCNCCN(C(=O)CCNCCc3ccc(Cl)c(Cl)c3)C3CCCCC3)ccc(O)c2N1	13.9	28.4	17.7	32	15.7	31.2	14.2	32.1	> 100	> 100	14.5	33.8	15.7	30.8	15.1	29.7	17.3	40.1	3.65	19.4
COc1cc([C@H]2c3cc(O)c(OC)cc3C[C@]3(O)[C@@H]2CO[C@@H]3O)ccc1O		> 100		> 100		> 100		> 100		> 100		> 100		> 100		> 100		> 100		> 100
O=C(O)C12C3C4C1C1C2C3C41I (configuration not stated)		> 100				> 100		> 100				> 100		> 100		> 100				> 100
COC(=O)C(NC(=O)c1ccccc1)c1ccc(OC)c(I)c1 (configuration not stated)	> 100	> 100	> 100	> 100	35.5	> 100	41.6	> 100	36.4	> 100	44.2	> 100	66.4	> 100	> 100	> 100	36.6	> 100	56.7	> 100
Oc1ccc(CCNc2nc3ccccc3c3[nH]c4ccccc4c23)cc1	11.5	23.8	1.45	3.42	1.16	2.93	2.4	5.41	2.68	9.28			1.38	2.87	1.73	3.19	1.94	6.34	1.81	3.82
CCCNc1ncnc2c1cnn2C		> 100				> 100		> 100				> 100		> 100		> 100				> 100
N#Cc1c(N)nc(N2CCOCC2)c(C#N)c1-c1ccc(Cl)cc1Cl	2.68	11.1	24.6	81	15.5	56.4			19.9	48.1	19.5	56.9	19	51.8	17.9	42.1	12.9	81.4	6.31	30.4
COC(=O)C1=C(C)N(NC(=O)Nc2ccccc2)C2(N)N(NC(=O)Nc3ccccc3)C(C)=C(C(=O)OC)C12C(=O)OC (configuration not stated)		> 100				> 100						78.5								> 100
CCOC(=O)/C(=C/c1ccc[nH]1)P(=O)(OCC)OCC								> 100				> 100		> 100		> 100				> 100
O=c1cccccc1[O-].O=c1cccccc1[O-].O=c1cccccc1[O-].[Dy+3]	80.7	> 100				> 100		54.3				76.2		> 100	17.9	78				52.1
CC(C)C12CCC3(CCC4C(C)(C(=O)O)CCCC4(C)C3C1)C(CN)C2 (configuration not stated)		98.4		> 100		> 100				> 100		42		> 100		78.9		> 100		> 100
CCCCCCCCCCCCCCCC(=O)NCC(OCC)OCC						> 100		> 100						> 100		> 100				> 100
CN1C/C(=C\c2ccco2)c2nc(N)nc(-c3ccco3)c2C1		> 100				> 100		> 100				> 100		> 100		> 100				> 100
CC1=C2[C@@H](c3ccccc3)C3C=CC2(C=C3C(F)(F)F)N(C(=O)NC2CCCCC2)C1=O (some centres not stated)		> 100				> 100		39.2						> 100		> 100				> 100
Cc1cc2c(=O)cc(-c3ccncc3)oc2c(C(=O)O)c1C						> 100		> 100				> 100		> 100		> 100				> 100
Clc1ccc(N=CNc2ccc(-c3nc4ccccc4[nH]3)cc2)cc1			59.2	> 100	33.1	> 100	0.631	> 100			7.57	> 100	6.18	> 100			42.6	> 100	36.1	> 100
Cc1nc(-c2cccnc2)sc1C(=O)/C=C/c1ccc(Cl)cc1Cl		> 100				> 100		> 100				> 100		> 100		> 100				> 100
COc1ccc(Cl)cc1Nc1nc(C(F)(F)F)ccc1C(=O)N/N=C/c1ccc(Cl)cc1	18.2	> 100	7.02	> 100	2.41	> 100	7.58	22	6.35	> 100	3.5	> 100	2.09	12.1	6.63	27.5	0.971	> 100		
